# Source: US4563472A, “Iodoallyl and iodopropargyl substituted tetrazoles and anti-microbial compositions thereof” (Meiji Seika Kaisha, Ltd., priority 1982, dated 1986)
# Where two headings read alike, the source gives them in different places.
# How the values were obtained:
# [1] = system: Mucor spinescens IAM Mu3; assay: Antifungal Activity (in Industrial Field), MIC; type: cell-based; conditions: IAMMU3, read-out: Minimal Inhibitory Conc. (MIC)
# [2] = system: Shigella sonnei EW 33 Type I; assay: Antibacterial Activity (in medicinal field), MIC; type: cell-based; conditions: EW33TYPEI, read-out: Minimal Inhibitory Conc. (MIC)
# [3] = system: Glomerella cingulata; assay: Antibacterial and Antifungal Activities (in Agricultural Field), MIC; type: cell-based; conditions: Colletotrichum gloeosporioides, read-out: Minimal Inhibitory Conc. (MIC)
# [4] = system: Pseudomonas syringae pv. tabaci; assay: as above; type: cell-based; conditions: read-out: Minimal Inhibitory Conc. (MIC)
# [5] = system: Xanthomonas campestris pv. oryzae; assay: microbe, parasite or virus in culture; type: cell-based; conditions: read-out: Minimal Inhibitory Conc. (MIC)
# [6] = system: Fusarium oxysporum f. lycopersici; assay: Antibacterial and Antifungal Activities (in Agricultural Field), MIC; type: cell-based; conditions: read-out: Minimal Inhibitory Conc. (MIC)
# [7] = system: Proteus vulgaris OX-19; assay: Antibacterial Activity (in medicinal field), MIC; type: cell-based; conditions: OX19, read-out: Minimal Inhibitory Conc. (MIC)
# [8] = system: Trichophyton mentagrophytes; assay: Reducing culture positive rate of skin slices from infected guinea pigs; type: in vivo, guinea pigs (White Hartly-strain); design: concentration or dose not given beside the values; conditions: after 8 days application, non-treated 100
# [9] = system: Botrytis cinerea; assay: Antibacterial and Antifungal Activities (in Agricultural Field), MIC; type: cell-based; conditions: read-out: Minimal Inhibitory Conc. (MIC)
# [10] = system: Pseudomonas cepacia M-0527; assay: Antibacterial Activity (in medicinal field), MIC; type: cell-based; conditions: Burkholderia cepacia, M0527, read-out: Minimal Inhibitory Conc. (MIC)
# [11] = system: Cochliobolus miyabeanus; assay: Antibacterial and Antifungal Activities (in Agricultural Field), MIC; type: cell-based; conditions: Bipolaris oryzae, read-out: Minimal Inhibitory Conc. (MIC)
# [12] = system: Penicillium luteum ATCC 9644; assay: Antifungal Activity (in Industrial Field), MIC; type: cell-based; conditions: Ascospirella lutea, ATCC9644, read-out: Minimal Inhibitory Conc. (MIC)
# [13] = system: Xanthomonas campestris pv. citri; assay: Antibacterial and Antifungal Activities (in Agricultural Field), MIC; type: cell-based; conditions: read-out: Minimal Inhibitory Conc. (MIC)
# [14] = system: Pullularia pullulans IAM F-24; assay: Antifungal Activity (in Industrial Field), MIC; type: cell-based; conditions: IAMF24; Pullularia pullulans IAM F-24; read-out: Minimal Inhibitory Conc. (MIC)
# [15] = system: Phricularia oryzae; assay: Antibacterial and Antifungal Activities (in Agricultural Field), MIC; type: cell-based; conditions: read-out: Minimal Inhibitory Conc. (MIC)
# [16] = system: Gibberella fujikuroi; assay: as above; type: cell-based; conditions: Fusarium fujikuroi, read-out: Minimal Inhibitory Conc. (MIC)
# [17] = system: Escherichia coli NIHJ JC-2; assay: Antibacterial Activity (in medicinal field), MIC; type: cell-based; conditions: NIHJJC2, read-out: Minimal Inhibitory Conc. (MIC)
# [18] = system: Trichophyton mentagrophytes; assay: Therapeutic experiment on trichophytosis in guinea pigs, visual observation; type: in vivo, guinea pigs (White Hartly-strain); conditions: 1% preparation, 0.25 ml once per day, 8 consecutive days
# [19] = system: Aspergillus flavus ATCC 6275; assay: Antifungal Activity (in Industrial Field), MIC; type: cell-based; conditions: ATCC6275, read-out: Minimal Inhibitory Conc. (MIC)
# [20] = system: Serratia marcescens MB-3848; assay: Antibacterial Activity (in medicinal field), MIC; type: cell-based; conditions: MB3848, read-out: Minimal Inhibitory Conc. (MIC)
# [21] = system: Alternaria kikuchiana; assay: Antibacterial and Antifungal Activities (in Agricultural Field), MIC; type: cell-based; conditions: read-out: Minimal Inhibitory Conc. (MIC)
# [22] = system: Staphylococcus aureus 209P JC-1; assay: Antibacterial Activity (in medicinal field), MIC; type: cell-based; conditions: read-out: Minimal Inhibitory Conc. (MIC)
# [23] = system: Aspergillus terreus PQMD 82 j; assay: Antifungal Activity (in Industrial Field), MIC; type: cell-based; conditions: PQMD82J, read-out: Minimal Inhibitory Conc. (MIC)
# [24] = system: Colletotrichum lagenarium; assay: Antibacterial and Antifungal Activities (in Agricultural Field), MIC; type: cell-based; conditions: Colletotrichum orbiculare, read-out: Minimal Inhibitory Conc. (MIC)
# [25] = system: Candida alubicans GA-24; assay: Antifungal Activity (in Medicinal Field), MIC; type: cell-based; conditions: GA24; Candida alubicans GA-24; read-out: Minimal Inhibitory Conc. (MIC)
# [26] = system: Diaporithe citri; assay: Antibacterial and Antifungal Activities (in Agricultural Field), MIC; type: cell-based; conditions: read-out: Minimal Inhibitory Conc. (MIC)
# [27] = system: Erwinia carotovora; assay: as above; type: cell-based; conditions: Pectobacterium carotovorum, read-out: Minimal Inhibitory Conc. (MIC)
# [28] = system: Trichophyton interdigitale; assay: Antifungal Activity (in Medicinal Field), MIC; type: cell-based; conditions: read-out: Minimal Inhibitory Conc. (MIC)
# [29] = system: Corynebacterium michiganense; assay: Antibacterial and Antifungal Activities (in Agricultural Field), MIC; type: cell-based; conditions: Clavibacter michiganensis, read-out: Minimal Inhibitory Conc. (MIC)
# [30] = system: Trichoderma T-1 ATCC 9645; assay: Antifungal Activity (in Industrial Field), MIC; type: cell-based; conditions: ATCC9645, read-out: Minimal Inhibitory Conc. (MIC)
# [31] = system: Staphylococcus faecalis ATCC 8043; assay: Antibacterial Activity (in medicinal field), MIC; type: cell-based; conditions: ATCC8043, read-out: Minimal Inhibitory Conc. (MIC)
# [32] = system: Pellicularia filamentosa; assay: Antibacterial and Antifungal Activities (in Agricultural Field), MIC; type: cell-based; conditions: read-out: Minimal Inhibitory Conc. (MIC)
# [33] = system: Aspergillus fumigatus Saito; assay: Antifungal Activity (in Medicinal Field), MIC; type: cell-based; conditions: read-out: Minimal Inhibitory Conc. (MIC)
# [34] = system: Cladosporium herbarum IAM F-517; assay: Antifungal Activity (in Industrial Field), MIC; type: cell-based; conditions: IAMF517, read-out: Minimal Inhibitory Conc. (MIC)
# [35] = system: Chaetomium globosum ATCC 6205; assay: Antifungal Activity (in Industrial Field), MIC; type: cell-based; conditions: ATCC6205, read-out: Minimal Inhibitory Conc. (MIC)
# [36] = system: Aspergillus fumigatus IAM 2621; assay: Antifungal Activity (in Industrial Field), MIC; type: cell-based; conditions: IAM2621, read-out: Minimal Inhibitory Conc. (MIC)
# [37] = system: Staphylococcus epidermidis ATCC 14990; assay: Antibacterial Activity (in medicinal field), MIC; type: cell-based
# [38] = system: Cryptococcus neoformans Cr-1; assay: Antifungal Activity (in Medicinal Field), MIC; type: cell-based; conditions: CR1, read-out: Minimal Inhibitory Conc. (MIC)
# [39] = system: Trichophyton metagrophytes 530324; assay: Antifungal Activity (in Medicinal Field), MIC; type: cell-based; conditions: Trichophyton metagrophytes 530324; read-out: Minimal Inhibitory Conc. (MIC)
# [40] = system: Klebsiella pneumoniae PCI-602; assay: Antibacterial Activity (in medicinal field), MIC; type: cell-based; conditions: PCI602, read-out: Minimal Inhibitory Conc. (MIC)
# [41] = Staphylococcus epidermidis, ATCC14990, read-out: Minimal Inhibitory Conc. (MIC)
compound,measurement,setting,value
"O=[N+]([O-])c1cn(CC(I)=C(I)I)c(Cl)c1Cl [1-(2',3',3'-triiodoallyl)-2,3-dichloro-4-nitropyrrole]",MIC,[1],> 50 µg/mL
same,MIC,[2]; Shigella sonnei EW 33 Type I,6.25 µg/mL
same,MIC,[3],1.56 µg/mL
same,MIC,[4],> 50 µg/mL
same,MIC,[5],> 50 µg/mL
same,MIC,[6],6.25 µg/mL
same,MIC,[7],6.25 µg/mL
same,Reducing Culture Positive Rate,[8]; 3 days culture,0%
same,Reducing Culture Positive Rate,[8]; 5 days culture,16.7%
same,Reducing Culture Positive Rate,[8]; 7 days culture,16.7%
same,MIC,[9],12.5 µg/mL
same,MIC,[10],6.25 µg/mL
same,MIC,[11],50 µg/mL
same,MIC,[12],6.25 µg/mL
same,MIC,[13],> 50 µg/mL
same,MIC,[14],> 50 µg/mL
same,MIC,[15],6.25 µg/mL
same,MIC,[16],3.12 µg/mL
same,MIC,[17],12.5 µg/mL
same,Therapeutic Effect: Desquamation,[18],effective
same,Therapeutic Effect: Thickening,[18],effective
same,MIC,[19],0.78 µg/mL
same,MIC,[20],6.25 µg/mL
same,MIC,[21],6.25 µg/mL
same,MIC,"[22]; Staphylococcus aureus, 209P",31.2 µg/mL
same,MIC,[23],1.56 µg/mL
same,MIC,[24],1.56 µg/mL
same,MIC,[25],0.39 µg/mL
same,MIC,[26],0.78 µg/mL
same,MIC,[27],> 50 µg/mL
same,MIC,[28],1.56 µg/mL
same,MIC,[29],6.25 µg/mL
same,MIC,[30],6.25 µg/mL
same,MIC,[31],31.2 µg/mL
same,MIC,[32],> 50 µg/mL
same,MIC,[33],0.19 µg/mL
same,MIC,[34],0.2 µg/mL
same,MIC,[35],50 µg/mL
same,MIC,[36],25 µg/mL
same,MIC,[37]; [41],31.2 µg/mL
same,MIC,[38],0.19 µg/mL
same,MIC,[39],0.19 µg/mL
"O=[N+]([O-])c1cc(Cl)n(CC(I)=C(I)I)c1 [1-(2',3',3'-triiodoallyl)-2-chloro-4-nitropyrrole]",MIC,[1],3.13 µg/mL
same,MIC,[2]; Shigella sonnei EW 33 Type I,12.5 µg/mL
same,MIC,[7],12.5 µg/mL
same,MIC,[10],12.5 µg/mL
same,MIC,[12],1.56 µg/mL
same,MIC,[14],1.56 µg/mL
same,MIC,[17],12.5 µg/mL
same,MIC,[19],0.39 µg/mL
same,MIC,[20],12.5 µg/mL
same,MIC,"[22]; Staphylococcus aureus, 209P",6.25 µg/mL
same,MIC,[23],1.56 µg/mL
same,MIC,[30],6.25 µg/mL
same,MIC,[31],6.25 µg/mL
same,MIC,[34],0.2 µg/mL
same,MIC,[35],3.13 µg/mL
same,MIC,[36],0.78 µg/mL
same,MIC,[37]; [41],6.25 µg/mL
"O=[N+]([O-])c1nccn1CC(I)=C(I)I [1-(2',3',3'-triiodoallyl)-2-nitroimidazole]",MIC,[1],6.25 µg/mL
same,MIC,[2]; Shigella sonnei,3.12 µg/mL
same,MIC,[3],0.78 µg/mL
same,MIC,[4],12.5 µg/mL
same,MIC,[5],12.5 µg/mL
same,MIC,[6],1.56 µg/mL
same,MIC,[7],6.25 µg/mL
same,MIC,[9],0.19 µg/mL
same,MIC,[10],3.12 µg/mL
same,MIC,[11],0.78 µg/mL
same,MIC,[12],3.13 µg/mL
same,MIC,[13],25 µg/mL
same,MIC,[14],3.13 µg/mL
same,MIC,[16],0.78 µg/mL
same,MIC,[19],1.56 µg/mL
same,MIC,[21],0.78 µg/mL
same,MIC,[22]; Staphylococcus aureus 209P JC-1,12.5 µg/mL
same,MIC,[23],0.78 µg/mL
same,MIC,[24],0.78 µg/mL
same,MIC,[25],0.78 µg/mL
same,MIC,[26],1.56 µg/mL
same,MIC,[27],12.5 µg/mL
same,MIC,[28],1.56 µg/mL
same,MIC,[29]; Corynebacterium michiganense,3.13 µg/mL
same,MIC,[30],6.25 µg/mL
same,MIC,[40],6.25 µg/mL
same,MIC,[32],25 µg/mL
same,MIC,[33],0.78 µg/mL
same,MIC,[34],0.39 µg/mL
same,MIC,[35],1.56 µg/mL
same,MIC,[36],6.25 µg/mL
same,MIC,"[37]; ATCC14990, Staphylococcus epidermidis ATCC 14990, read-out: Minimal Inhibitory Conc. (MIC)",12.5 µg/mL
same,MIC,[38],25 µg/mL
same,MIC,[39],0.78 µg/mL
